Data on 12 molecules can be found in BindingDB's records for doi:10.1073/pnas.90.2.408 (Synaptic Pharmaceutical, 1993).

Where only a bound is given, the exact number is not on record here.

The assay has as its target T1, 5-hydroxytryptamine receptor 1F (Homo sapiens, UniProt P30939).
T1 sequence (P30939 whole entry): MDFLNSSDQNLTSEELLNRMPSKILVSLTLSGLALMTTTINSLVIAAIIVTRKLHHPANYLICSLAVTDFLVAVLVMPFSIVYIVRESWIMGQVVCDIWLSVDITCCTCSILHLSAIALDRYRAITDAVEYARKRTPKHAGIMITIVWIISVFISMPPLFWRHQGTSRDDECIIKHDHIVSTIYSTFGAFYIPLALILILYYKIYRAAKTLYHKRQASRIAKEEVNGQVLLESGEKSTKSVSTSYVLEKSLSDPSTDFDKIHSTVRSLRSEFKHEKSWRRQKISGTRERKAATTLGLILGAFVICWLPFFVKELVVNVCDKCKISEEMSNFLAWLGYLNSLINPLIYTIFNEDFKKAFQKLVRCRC

As a reminder, the Ki is the dissociation constant of the complex between target and ligand, obtained from inhibition or displacement. Low values mean tighter binding, high ones weaker binding. For `O=C(c1ccc(F)cc1)C1CCN(CCn2c(=O)[nH]c3ccccc3c2=O)CC1` [3-(2-{4-[(4-fluorophenyl)carbonyl]piperidin-1-yl}ethyl)-1,2,3,4-tetrahydroquinazoline-2,4-dione], the inhibition constant (Ki) was > 10000 nM.

The molecule `COc1cc(CC(C)N)c(OC)cc1I` (configuration not stated) [[125I]2,5-dimethoxy-4-iodoamphetamine] came in with a Ki of 1740 nM. With `CN1C[C@@H](NS(=O)(=O)N(C)C)C[C@@H]2c3cccc4c3c(cn4C)C[C@H]21` [MESULERGINE] the figure was > 10000 nM. `COc1cc(N)c(Cl)cc1C(=O)NC1CN2CCC1CC2` (configuration not stated) [ZACOPRIDE,R]: the Ki was > 10000 nM.

`CCCN(CCC)CCc1c[nH]c2ccc(C(N)=O)cc12` [NN-DIPROP-5-CT] displayed a Ki of 1610 nM. With `COc1ccc2[nH]cc(CCN)c2c1` [tryptamine, 5-Methoxy] the figure was 1170 nM; with `COc1ccc2[nH]cc(CCN(C)C)c2c1` [3-(2-DIMETHYLAMINOETHYL)-5-METHOXYINDOLE], 37 nM.

In turn, `CSc1ccc2c(c1)C(N1CCN(C)CC1)Cc1ccccc1S2` (configuration not stated) [methanesulfonic acid;1-methyl-4-(3-methylsulfanyl-5,6-dihydrobenzo[b][1]benzothiepin-5-yl)piperazine] showed an inhibition constant (Ki) of 652 nM. With `CCCN(CCC)C1CCc2cccc(O)c2C1` (configuration not stated) the figure was 1770 nM. On to `CC(C)NCC(O)COc1cccc2[nH]ccc12` (configuration not stated) [LB-46], for which the Ki is > 10000 nM.

On to `Cn1cc(CCN)c2cc(O)ccc21` [5-HT,omega-N-Me], for which the Ki turned out to be 184 nM. Take `O=C(CCCN1CCC2(CC1)C(=O)NCN2c1ccccc1)c1ccc(F)cc1` [8-[4-(4-fluorophenyl)-4-oxidanylidene-butyl]-1-phenyl-1,3,8-triazaspiro[4.5]decan-4-one]: the Ki was > 10000 nM.
